Where a name gives a salt, the structure may show the parent alone. Read-outs that look alike come from different tables or passages of the source.
Legend:
[1] = biological target: T1, Recombinant Human 17β-HSD1 (Homo sapiens, UniProt P14061); experiment: Inhibition of recombinant human 17β-HSD1 (conversion of 3H-estrone to estradiol, HPLC); format: biochemical; conditions: for inhibition at 1 µM: read-out: 17β-HDS1 Inhibition % at 1 μM
T1 construct: made in house; host or cells: Sd9 (Sf9) insect cells, baculovirus (Bac to Bac Expression System)
T1 sequence (P14061 1-328): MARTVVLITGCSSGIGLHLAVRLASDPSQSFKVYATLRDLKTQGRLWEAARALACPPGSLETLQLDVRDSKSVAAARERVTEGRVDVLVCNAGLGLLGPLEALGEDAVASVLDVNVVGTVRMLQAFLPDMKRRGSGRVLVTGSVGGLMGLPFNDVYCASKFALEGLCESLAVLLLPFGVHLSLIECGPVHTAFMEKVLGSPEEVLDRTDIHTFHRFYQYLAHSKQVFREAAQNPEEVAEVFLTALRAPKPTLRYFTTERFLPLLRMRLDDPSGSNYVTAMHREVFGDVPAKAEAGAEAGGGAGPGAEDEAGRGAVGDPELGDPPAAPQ
Experimental: 17β-HSD1 Production and Isolation:
Recombinant baculovirus was generated by the “Bac to Bac Expression System” (Invitrogen). Recombinant bacmid was transfected to Sd9 insect cells using “Cellfectin Reagent” (Invitrogen). 60 h later cells were harvested; the microsomal fraction was isolated as described by Puranen, T. J., Poutanen, M. H., Peltoketo, H. E., Vihko, P. T. and Vihko, R. K. (1994) Site-directed mutagenesis of the putative active site of human 17 β-hydroxysteroid dehydrogenase type 1. Biochem. J. 304: 289-293. Aliquots were stored frozen until determination of enzymatic activity.
Assay—Inhibition of Recombinant Human 17β-HSD1:
Recombinant protein (1 μg/ml) was incubated in 20 mM KH2PO4 pH 7.4 with 30 nM estrone (including 800.000 cpm/ml of ^3H-estrone) and 1 mM NADPH for 30 min at RT, in the presence of the potential inhibitor at concentrations 1 μM or 0.1 μM. Inhibitor stock solutions were prepared in DMSO. Final concentration of DMSO was adjusted to 1% in all samples. The enzyme reaction was stopped by addition of 10% trichloroacetic acid (final concentration). Samples were centrifuged in a microtiter plate at 4000 rpm for 10 min. Supernatants were applied to reverse phase HPLC on a Waters Symmetry C18 column, equipped with a Waters Sentry Guard column. Isocratic HPLC runs were performed at RT at a flow rate of 1 ml/min in acetonitrile:water 48:52 as running solvent. Radioactivity was monitored in the eluate by a Packard Flow Scintillation Analyzer. Total radioactivity for estrone and estradiol were determined in each sample and percent conversion of estrone to estradiol was calculated according to the following formula:
(§1) Percent inhibition was calculated flowingly: % inhibition=100−% conversion

[2] = biological target: T2, Recombinant Human 17β-HSD2 (Homo sapiens, UniProt P37059); experiment: Inhibition of recombinant human 17β-HSD2 (conversion of 3H-estradiol to estrone, HPLC); format: biochemical; conditions: for inhibition at 1 µM: read-out: 17β-HSD2 Inhibition % at 1 μM
T2 construct: made in house; host or cells: Sd9 (Sf9) insect cells, baculovirus (Bac to Bac Expression System)
T2 sequence (P37059 1-387): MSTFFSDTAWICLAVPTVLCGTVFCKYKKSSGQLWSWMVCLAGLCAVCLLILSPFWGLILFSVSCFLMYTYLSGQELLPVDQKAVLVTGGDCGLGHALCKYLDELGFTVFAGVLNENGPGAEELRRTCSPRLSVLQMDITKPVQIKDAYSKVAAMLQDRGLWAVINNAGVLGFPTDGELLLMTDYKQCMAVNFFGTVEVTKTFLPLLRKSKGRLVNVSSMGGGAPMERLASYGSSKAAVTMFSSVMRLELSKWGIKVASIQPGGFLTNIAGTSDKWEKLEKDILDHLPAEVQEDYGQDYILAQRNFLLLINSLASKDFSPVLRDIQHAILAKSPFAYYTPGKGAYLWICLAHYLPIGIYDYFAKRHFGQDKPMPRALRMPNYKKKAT
Experimental: 17β-HSD2 Production and Isolation:
Similarly to 17β-HSD1 the Recombinant baculovirus was generated by the “Bac to Bac Expression System” (Invitrogen). Recombinant bacmid was transfected to Sd9 insect cells using “Cellfectin Reagent” (Invitrogen). 60 h later cells were harvested and supernatant were fractionated by the following protocol: • cells were dissolved into 40 ml of A-buffer (40 mM TRIS, pH8.0, 20% glycerol, 20 μM NAD, 0.4 mM PMSF, 150 mM NaCl, 0.5% dodecyl-β-maltoside+protease inhibitor cocktail) • cells were sonicated • lysate was incubated on ice for 15 min • lysate was centrifuged 5000 rpm 15 min, +4° C. • centrifugation of the supernatant 180.000 g 30 min, +4° C. • pellet was dissolved into 8 ml of A-buffer • not resuspended material was removed by centrifugation 5000 rpm 15 min, +4° C. • the clear supernatant was divided into 100 μl aliquots and were stored frozen until determination of enzymatic activity.
The amount of 17β-HSD2 was analysed by immunoblotting and total protein concentration of each extract batch was determined.
Assay—Inhibition of Recombinant Human 17β-HSD2:
Recombinant protein (4 μg/ml) was incubated in 20 mM KH2PO4 pH 8.5 with 50 nM estradiol (including 800.000 cpm/ml of ^3H-estradiol) and 1 mM NADH for 30 min at RT, in the presence of the potential inhibitor at concentrations 1 μM or 0.1 μM. Inhibitor stock solutions were prepared in DMSO. Final concentration of DMSO was adjusted to 1% in all samples. The enzyme reaction was stopped by addition of 10% trichloroacetic acid (final concentration). Samples were centrifuged in a microtiter plate at 4000 rpm for 10 min. Supernatants were applied to reverse phase HPLC on a Waters Symmetry C18 column, equipped with a Waters Sentry Guard column. Isocratic HPLC runs were performed at RT at a flow rate of 1 ml/min in acetonitrile:water 48:52 as running solvent. Radioactivity was monitored in the eluate by a Packard Flow Scintillation Analyzer. Total radioactivity for estrone and estradiol were determined in each sample and percent conversion of estradiol to estrone was calculated according to the following formula:
as §1

[3] = inhibitor at 1 μM, 30 nM estrone, 1 mM NADPH, 30 min at RT
[4] = inhibitor at 1 μM, 50 nM estradiol, 1 mM NADH, 30 min at RT

SMILES: Cc1cnc(NC(=O)CC[C@@H]2CC(NCCO)[C@@]3(C)CCC4c5ccc(O)cc5CCC4C23)s1 (stereo partly drawn) [Compound 78, 3-((13S,15R)-3-Hydroxy-17-(2-hydroxyethylamino)-13-methyl-7,8,9,11,12,13,14,15,16,17-decahydro-6H-cyclopenta[a]phenanthren-15-yl]-N-(5-methylthiazol-2-yl)propionamide]
- inhibition at 1 µM [1, 3]: 88%
- inhibition at 1 µM [2, 4]: 2%

SMILES: Cc1cnc(NC(=O)CC[C@@H]2C[C@H](O)[C@@]3(C)CCC4c5ccc(O)c(NC(C)CO)c5CCC4C23)s1 (stereo partly drawn) [Compound 72, 3-[(13S,15R,17S)-3,17-Dihydroxy-4-(2-hydroxy-1-methyl-ethylamino)-13-methyl-7,8,9,11,12,13,14,15,16,17-decahydro-6H-cyclopenta[a]phenanthren-15-yl]-N-(5-methylthiazol-2-yl)propionamide]
- inhibition at 1 µM [1, 3]: 50%
- inhibition at 1 µM [2, 4]: 0%

SMILES: Cc1cnc(NC(=O)CC[C@@H]2C[C@H](OC(=O)CCC(=O)O)[C@@]3(C)CCC4c5ccc(O)cc5CCC4C23)s1 (stereo partly shown) [Compound 44, sodium salt]
- inhibition at 1 µM [1]: 94%
- inhibition at 1 µM [2]: 2%

SMILES: Cc1cnc(NC(=O)CC[C@@H]2CC(NCCCN(C)C)[C@@]3(C)CCC4c5ccc(O)cc5CCC4C23)s1 (stereo partly drawn) [Compound 80b, 3-[(13S,15R)-17-(3-Dimethylamino-propylamino)-3-hydroxy-13-methyl-7,8,9,11,12,13,14,15,16,17-decahydro-6H-cyclopenta[a]phenanthren-15-yl]-N-(5-methylthiazol-2-yl)propionamide dihydrochloride]
- 17β-HDS1 Inhibition % at 1 μM ([1]; inhibitor at 1 μM, 30 nM estrone, 1 mM NADPH, 30 min at RT, dihydrochloride): 61%
- 17β-HSD2 Inhibition % at 1 μM ([2]; inhibitor at 1 μM, 50 nM estradiol, 1 mM NADH, 30 min at RT, dihydrochloride): 2%

SMILES: Cc1cnc(NC(=O)CC[C@@H]2C[C@H](NCC(C)C)[C@@]3(C)CCC4c5cc(C(C)(C)C)c(O)cc5CCC4C23)s1 (stereo partly drawn) [Compound 75b, 3-((13S,15R)-2-tert-Butyl-3-Hydroxy-17-isobutylamino-13-methyl-7,8,9,11,12,13,14,15,16,17-decahydro-6H-cyclopenta[a]phenanthren-15-yl]-N-(5-methylthiazol-2-yl)propionamide]
- inhibition at 1 µM [1, 3]: 77%
- inhibition at 1 µM [2, 4]: 13%

SMILES: Cc1cnc(NC(=O)CC[C@@H]2CC(NCCN(C)C)[C@@]3(C)CCC4c5ccc(O)cc5CCC4C23)s1 (stereo partly drawn) [Compound 81, 3-[(13S,15R)-17-(2-Dimethylamino-ethylamino)-3-hydroxy-13-methyl-7,8,9,11,12,13,14,15,16,17-decahydro-6H-cyclopenta[a]phenanthren-15-yl]-N-(5-methylthiazol-2-yl)propionamide]
- inhibition at 1 µM [1, 3]: 71%
- inhibition at 1 µM [2, 4]: 2%

SMILES: CO[C@H]1C[C@@H](CCC(=O)Nc2ncc(C)s2)C2C3CCc4c(cc(Br)c(O)c4Br)C3CC[C@@]21C (stereo partly drawn) [Compound 29, 3-((13S,15R,17S)-2,4-dibromo-3-hydroxy-17-methoxy-13-methyl-7,8,9,11,12,13,14,15,16,17-decahydro-6H-cyclopenta[a]phenanthren-15-yl)-N-(5-methylthiazol-2-yl)propanamide]
- inhibition at 1 µM [1, 3]: 67%
- inhibition at 1 µM [2, 4]: 3%

SMILES: Cc1cnc(NC(=O)CC[C@@H]2C[C@H](OP(=O)(O)O)[C@@]3(C)CCC4c5ccc(O)cc5CCC4C23)s1 (stereo partly shown) [Compound 60]
- inhibition at 1 µM [1, 3]: 74%
- inhibition at 1 µM [2, 4]: 0%

SMILES: Cc1cnc(NC(=O)CC[C@@H]2C[C@@](O)(CC#N)[C@@]3(C)CCC4c5cc(Br)c(O)c(Br)c5CCC4C23)s1 (stereo partly drawn) [Compound 30, 3-((13S,15R,17R)-2,4-dibromo-17-(cyanomethyl)-3,17-dihydroxy-13-methyl-7,8,9,11,12,13,14,15,16,17-decahydro-6H-cyclopenta[a]phenanthren-15-yl)-N-(5-methylthiazol-2-yl)propanamide]
- inhibition at 1 µM [1, 3]: 52%
- inhibition at 1 µM [2, 4]: 7%

SMILES: Cc1cnc(NC(=O)CC[C@@H]2C[C@H](O)[C@@]3(C)CCC4c5ccc(O)c(NC(C)C)c5CCC4C23)s1 (stereo partly drawn) [Compound 71, 3-((13S,15R,17S)-3,17-Dihydroxy-4-isopropylamino-13-methyl-7,8,9,11,12,13,14,15,16,17-decahydro-6H-cyclopenta[a]phenanthren-15-yl)-N-(5-methylthiazol-2-yl)propionamide]
- inhibition at 1 µM [1, 3]: 49%
- inhibition at 1 µM [2, 4]: 10%

SMILES: Cc1cnc(NC(=O)CC[C@@H]2C[C@@](O)(C#N)[C@@]3(C)CCC4c5ccc(O)cc5CCC4C23)s1 (stereo partly drawn) [Compound 21, 3-((13S,15R,17S)-17-cyano-3,17-dihydroxy-13-methyl-7,8,9,11,12,13,14,15,16,17-decahydro-6H-cyclopenta[a]phenanthren-15-yl)-N-(5-methylthiazol-2-yl)propanamide]
- inhibition at 1 µM [1, 3]: 76%
- inhibition at 1 µM [2, 4]: 6%

SMILES: Cc1cnc(NC(=O)CC[C@@H]2C[C@H](O)[C@@]3(C)CCC4c5ccc(O)cc5CCC4C23)s1 (stereo partly drawn) [Compound 1, 3-((13S,15R,17S)-3,17-Dihydroxy-13-methyl-7,8,9,11,12,13,14,15,16,17decahydro-6H-cyclopenta[a]phenanthren-15-yl)-N-(5-methylthiazol-2-yl)propanamide]
- inhibition at 1 µM [1, 3]: 98%
- inhibition at 1 µM [2, 4]: 48%

SMILES: COc1ccc2c(c1)CCC1C2CC[C@@]2(C)C1[C@H](CCC(=O)Nc1ncc(C)s1)C[C@@]2(O)C#N (stereo partly drawn) [Compound 23, 3-((13S,15R,17S)-17-cyano-17-hydroxy-3-methoxy-13-methyl-7,8,9,11,12,13,14,15,16,17-decahydro-6H-cyclopenta[a]phenanthren-15-yl)-N-(5-methylthiazol-2-yl)propanamide]
- inhibition at 1 µM [1, 3]: 82%
- inhibition at 1 µM [2, 4]: 3%

SMILES: COc1ccc2c(c1)CCC1C2CC[C@@]2(C)C1[C@H](CCC(=O)Nc1ncc(C)s1)C[C@@H]2OP(=O)(O)O (stereo partly drawn) [Compound 46, Phosphoric acid mono-{(13S,15R,17S)-3-methoxy-13-methyl-15-[2-(5-methylthiazol-2-ylcarbamoyl)-ethyl]-17-oxo-7,8,9,11,12,13,14,15,16,17-decahydro-6H-cyclopenta[a]phenanthren-17-yl}ester]
- inhibition at 1 µM [1, 3]: 84%
- inhibition at 1 µM [2, 4]: 1%

Reference: patent US9850272B2, “Therapeutically active estratrienthiazole derivatives as inhibitors of 17.beta-hydroxy-steroid dehydrogenase, type 1” (FORENDO PHARMA LTD, priority 2013, dated 2017)
